One may read the inhibition as the change of the read-out against control, counted positive when it falls.

Data on 16 compounds can be found in patent publication US8178678B2, “Bis-quaternary ammonium salts and methods for modulating neuronal nicotinic acetylcholine receptors” (University of Kentucky Research Foundation, priority 2006, dated 2012).

The target of assay [1] is T1, Rat Striatal Nicotinic Receptors ([^3H]NIC binding sites; α4β2) (Rattus norvegicus, UniProt P09483+P12390).
T1 construct: Whole brain, excluding cortex and cerebellum, was homogenized in 20 vol of ice-cold buffer; from tissue; host or cells: rat brain membranes (whole brain excluding cortex and cerebellum)
T1 sequence (P09483 31-630): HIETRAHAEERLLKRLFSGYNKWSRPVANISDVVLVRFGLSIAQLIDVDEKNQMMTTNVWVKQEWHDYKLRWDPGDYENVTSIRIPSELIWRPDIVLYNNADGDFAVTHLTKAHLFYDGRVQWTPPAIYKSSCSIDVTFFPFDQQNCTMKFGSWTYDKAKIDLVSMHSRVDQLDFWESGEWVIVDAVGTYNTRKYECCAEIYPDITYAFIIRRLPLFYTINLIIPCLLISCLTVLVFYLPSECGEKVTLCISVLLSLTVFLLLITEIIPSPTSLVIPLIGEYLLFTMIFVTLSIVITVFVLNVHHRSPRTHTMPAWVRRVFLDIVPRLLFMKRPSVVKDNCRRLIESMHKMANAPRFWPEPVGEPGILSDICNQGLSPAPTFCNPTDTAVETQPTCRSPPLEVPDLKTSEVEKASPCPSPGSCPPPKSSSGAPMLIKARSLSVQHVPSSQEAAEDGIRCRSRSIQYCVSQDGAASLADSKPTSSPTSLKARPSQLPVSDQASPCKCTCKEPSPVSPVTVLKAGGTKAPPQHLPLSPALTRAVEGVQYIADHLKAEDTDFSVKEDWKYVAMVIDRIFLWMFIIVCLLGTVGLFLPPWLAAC
T1 sequence (P12390 25-500): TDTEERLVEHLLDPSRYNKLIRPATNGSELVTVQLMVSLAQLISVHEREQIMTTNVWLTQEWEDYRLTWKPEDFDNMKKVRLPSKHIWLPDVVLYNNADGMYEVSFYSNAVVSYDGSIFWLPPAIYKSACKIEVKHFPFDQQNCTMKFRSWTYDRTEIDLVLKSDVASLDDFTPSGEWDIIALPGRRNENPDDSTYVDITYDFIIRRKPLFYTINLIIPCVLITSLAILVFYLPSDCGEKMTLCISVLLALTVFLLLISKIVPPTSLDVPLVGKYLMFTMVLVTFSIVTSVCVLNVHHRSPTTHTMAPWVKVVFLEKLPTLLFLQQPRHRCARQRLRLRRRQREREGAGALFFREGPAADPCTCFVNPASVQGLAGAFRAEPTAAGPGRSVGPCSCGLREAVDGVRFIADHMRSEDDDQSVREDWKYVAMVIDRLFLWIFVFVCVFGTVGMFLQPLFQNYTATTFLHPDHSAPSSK
Put plainly: Inhibition of [^3H]NIC binding. The note with it: 1 h; 100 nM analog; 3 nM [^3H]NIC; nonspecific 10 μM cytisine; rat brain membranes. The method, then:
(§1) Homogenate was centrifuged (25,000 g, 15 min, 4° C). Pellets were resuspended in 20 vol buffer and incubated at 37° C., for 10 min, cooled to 4° C. and centrifuged (25,000 g, 15 min, 4° C.). Pellets were resuspended and centrifuged using the same conditions. […] Upon use, final pellets were resuspended in 20 vol assay buffer. Samples (250 μl) contained 100-140 μg of membrane protein, 3 nM [^3H]-S-nicotine or 3 nM [^3H]-methyllycaconitine (MLA), and bis-quaternary ammonium analog (100 nM) in assay buffer containing 50 mM Tris. Control was in the absence of analog. In [^3H]-S-nicotine and [^3H]-methyllycaconitine binding assays, nonspecific binding was determined in the presence of 10 μM cytisine and 10 μM S-nicotine, respectively. Incubations proceeded for 60 min at room temperature using 96-well plates and were terminated by harvesting on Unifilter-96 GF/B filter plates presoaked in 0.5% polyethylenimine, using a Packard FilterMate harvester. After washing 5 times with 350 μl ice-cold assay buffer, filter plates were dried (60 min, 4° C.), bottom-sealed, and filled with Packard's MicroScint 20 cocktail (40 μl/well). After 60 min, filter plates were top-sealed, and radioactivity determined using a Packard TopCount. Protein concentrations were determined using the Bradford dye-binding procedure bovine serum albumin as the standard.
Specific binding in the [^3H]NIC binding assay is calculated as the difference between the total binding of 3 nM [^3H]NIC and nonspecific binding in the presence of 10 μM cold cytisine. […] Analog-induced inhibition of S-nicotine-evoked [^3H]DA release is calculated as a percent of that in the absence of the bis-quaternary ammonium analog.

The subject of assay [2] is nicotinic receptors mediating S-nicotine-evoked [^3H]DA release in rat striatal slices. Put plainly: Inhibition of S-nicotine-evoked [^3H]dopamine release from superfused rat striatal slices. The class given is cell-based. The note with it: 1 h; 100 nM analog superfused 60 min before NIC 10 μM; rat striatal slices; read-out: [^3H]DA release, % inhibition of S-nicotine-evoked release. The method, then: Rat striatal slices (500 μm thickness, 6-8 mg wet weight) were incubated for 30 minutes in Krebs buffer (118 mM NaCl, 4.7 mM KCl, 1.2 mM MgCl2, 1.0 mM NaH2PO4, 1.3 mM CaCl2, 11.1 mM glucose, 25 mM NaHCO3, 0.11 mM L-ascorbic acid, and 0.004 mM disodium EDTA; pH 7.4, and saturated with 95% O2/5% CO2) in a metabolic shaker at 34° C. Slices were rinsed with 15 mL of fresh buffer and incubated for an additional 30 minutes in fresh buffer containing 0.1 μM [^3H]dopamine (DA; 6 slices/3 mL). Subsequently, slices were rinsed with 15 mL of fresh buffer and transferred to a glass superfusion chamber. Slices were superfused (1.0 mL/min) for 60 minutes with Krebs buffer containing nomifensine (10 μM) and pargyline (10 μM) and maintained at 34° C., pH 7.4, with continual aeration (95% O2/5% CO2). Two five minute samples (5 mL each) were collected to determine basal outflow of [^3H]DA. The bis-quaternary ammonium analogs were added to the superfusion buffer after the collection of the second sample and remained in the buffer until 12 consecutive five minute samples were collected. Subsequently, S-nicotine (NIC; 10 μM) was added to the buffer and an additional 12 consecutive five minute samples were collected. At the end of the experiment, each slice was solubilized and the [^3H] content of the tissue determined.
Radioactivity in the superfusate and tissue samples was determined by liquid scintillation spectroscopy. Fractional release for tritium collected in each sample was divided by the total tritium present in the tissue at the time of sample collection and was expressed as a percentage of total tritium. Basal [^3H]outflow was calculated from the average of the tritium collected in the two five minute samples just before addition of the quaternary analog. The sum of the increase in collected tritium resulting from either exposure to the test compound or exposure to S-nicotine in the absence and presence of the test compound equaled total [^3H]overflow. [^3H]Overflow was calculated by subtracting the [^3H]outflow during an equivalent period of prestimulation from the values in samples collected during and after drug exposure. Inasmuch as the radiolabelled compounds were not separated and identified, the tritium collected in superfusate is referred to as either [3H]outflow or [^3H]overflow, rather than as [^3H]DA. [^3H]Overflow primarily represents [^3H]DA in the presence of nomifensine and pargyline in the superfusion buffer.
The bis-quaternary ammonium analogs were also evaluated for their ability to inhibit NIC evoked [^3H]DA release. In these experiments, the striatal slices were superfused for 60 minutes with 100 nM concentration of the quaternary analogs prior to NIC (10 μM) exposure. Antagonist activity was evaluated by comparing the NIC-evoked [^3 H]overflow in the absence and presence of the analogs. The relative order of potency of the quaternary analogs for inhibition of NIC-evoked [^3H]DA release from rat striatal slices is illustrated in Table 1.
^aData are % inhibition at 100 nM concentration of the bis-quaternary ammonium analogs for at least 1-3 independent experiments; with the exception of when a Ki value in μM is provided, in which case a full concentration effect was evaluated. Specific binding in the [^3H]NIC binding assay is calculated as the difference between the total binding of 3 nM [^3H]NIC and nonspecific binding in the presence of 10 μM cold cytisine. Specific binding for the [^3H]MLA binding assay is calculated as the difference between the total binding of […] [^3H]MLA to the receptors alone and its nonspecific binding in the presence of […] cold S-nicotine. Analog-induced inhibition of S-nicotine-evoked [^3H]DA release is calculated as a percent of that in the absence of the bis-quaternary ammonium analog.

Assay [3] has as its target T2, Rat Striatal Nicotinic Receptors ([^3H]MLA binding sites; α7) (Rattus norvegicus, UniProt Q05941).
T2 construct: Whole brain, excluding cortex and cerebellum, was homogenized in 20 vol of ice-cold buffer; from tissue; host or cells: rat brain membranes (whole brain excluding cortex and cerebellum)
Put plainly: Inhibition of [^3H]MLA (methyllycaconitine) binding. Conditions: 100 nM analog; [^3H]MLA; nonspecific S-nicotine; rat brain membranes; read-out: [^3H]MLA binding, % inhibition. As to the method: as §1, with “standard. […]” for “standard.”

T2 sequence (Q05941 23-502): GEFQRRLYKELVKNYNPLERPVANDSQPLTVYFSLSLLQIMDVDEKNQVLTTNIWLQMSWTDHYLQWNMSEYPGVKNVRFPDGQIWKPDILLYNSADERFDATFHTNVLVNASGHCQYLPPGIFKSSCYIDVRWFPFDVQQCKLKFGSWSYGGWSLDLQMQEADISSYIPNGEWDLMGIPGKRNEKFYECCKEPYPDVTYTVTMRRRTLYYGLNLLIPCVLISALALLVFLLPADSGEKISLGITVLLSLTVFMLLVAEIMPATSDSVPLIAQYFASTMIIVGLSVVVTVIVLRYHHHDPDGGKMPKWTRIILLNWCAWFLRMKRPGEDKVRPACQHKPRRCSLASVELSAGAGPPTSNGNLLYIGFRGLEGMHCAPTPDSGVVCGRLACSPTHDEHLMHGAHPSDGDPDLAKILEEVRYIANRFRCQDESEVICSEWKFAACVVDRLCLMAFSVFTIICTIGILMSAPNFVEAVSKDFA

With `OCCCc1ccc[n+](CCCCc2ccc(CCCC[n+]3cccc(CCCO)c3)cc2)c1` [Example 17, N,N′-[1,4-phenylenedi-(4-butanyl)]-bis-[3-(3-hydroxy-propyl)-pyridinium]dibromide], the figures for the inhibition at 0.1 µM in assay [1], in assay [2] and in assay [3] were 0%, 40% and 3%, respectively.

Regarding `Cc1cccc[n+]1CCCC#Cc1ccccc1C#CCCC[n+]1ccccc1C` [Example 23, 1,2-bis-[5-(2-methyl-pyridinium)-pent-1-ynyl]-benzene dibromide], the inhibition at 0.1 µM amounted to 2.1% in assay [1], 25% in assay [2] and 1.2% in assay [3].

For the compound `Cc1ccc[n+](CCCC#Cc2ccccc2C#CCCC[n+]2cccc(C)c2)c1` [Example 24, 1,2-bis-[5-(3-methyl-pyridinium)-pent-1-ynyl]-benzene dibromide], the inhibition at 0.1 µM in assay [1] is 3.9%; in assay [2], 46%; in assay [3] it was 0%.

In the case of `Cc1cc[n+](CCCC#Cc2ccccc2C#CCCC[n+]2ccc(C)cc2)cc1` [Example 25, 1,2-bis-[5-(4-methyl-pyridinium)-pent-1-ynyl]-benzene dibromide], the inhibition at 0.1 µM in assay [1] came to 2.5%; in assay [2], 12%; in assay [3], 5.4%.

As for `Cc1cc[n+](CCCC#Cc2ccccc2C#CCCC[n+]2ccc(C)cc2C)c(C)c1` [Example 26, 1,2-bis-[5-(2,4-dimethyl-pyridinium)-pent-1-ynyl]-benzene dibromide], the inhibition at 0.1 µM is 0% in assay [1], 18% in assay [2] and 0% in assay [3].

For `Cc1cc[n+](CCCC#Cc2ccccc2C#CCCC[n+]2ccc(C)c(C)c2)cc1C` [Example 27, 1,2-bis-[5-(3,4-dimethyl-pyridinium)-pent-1-ynyl]-benzene dibromide], the inhibition at 0.1 µM in assay [1] was found to be 4.2%; in assay [2] it was 23%; in assay [3], 4.2%.

Consider `Cc1cc(C)c[n+](CCCC#Cc2ccccc2C#CCCC[n+]2cc(C)cc(C)c2)c1` [Example 28, 1,2-bis-[5-(3,5-dimethyl-pyridinium)-pent-1-ynyl]-benzene dibromide], for which the inhibition at 0.1 µM came out at 1.3% in assay [1], 19% in assay [2] and 5% in assay [3].

`C(#Cc1ccccc1C#CCCC[n+]1cccc2ccccc21)CCC[n+]1cccc2ccccc21` [Example 29, 1,2-bis-(5-quinolinium-pent-1-ynyl)-benzene dibromide]: the results for the inhibition at 0.1 µM in assay [1], in assay [2] and in assay [3] were 0%, 20% and 2.3%, respectively.

As to `C(#Cc1ccccc1C#CCCC[n+]1ccc2ccccc2c1)CCC[n+]1ccc2ccccc2c1` [Example 30, 1,2-bis-(5-isoquinolinium-pent-1-ynyl)-benzene dibromide], the inhibition at 0.1 µM was found to be 1.6% in assay [1], 24% in assay [2] and 1.1% in assay [3].

For the compound `CN1CCC[C@@H]1c1ccc[n+](CCCC#Cc2ccccc2C#CCCC[n+]2cccc([C@@H]3CCCN3C)c2)c1` [Example 31, 1,2-bis-[5-(2′-S-nicotinium-pent-1-ynyl)]benzene dibromide], the figures for the inhibition at 0.1 µM in assay [1], in assay [2] and in assay [3] were 72%, 35% and 9.2%, respectively.

For `Cc1cccc[n+]1CCCCCc1ccccc1CCCCC[n+]1ccccc1C` [Example 34, 1,2-bis-[5-(2-methyl-pyridinium)-pentyl]-benzene dibromide], the inhibition at 0.1 µM was 0% in assay [1], 8% in assay [2] and 7.6% in assay [3].

With `Cc1ccc[n+](CCCCCc2ccccc2CCCCC[n+]2cccc(C)c2)c1` [Example 35, 1,2-bis-[5-(3-methyl-pyridinium)-pentyl]-benzene dibromide], the inhibition at 0.1 µM in assay [1] was found to be 0%; in assay [2] it was 25%; in assay [3] it was 5.4%.

As to `Cc1cc(C)c[n+](CCOCCOCCOCC[n+]2cc(C)cc(C)c2)c1` [Example 90, N,N′-{2,2′-[oxybis-(2,1-ethandiyloxy)]bis-ethyl}-bis-(3,5-dimethylpyridinium)dichloride], the inhibition at 0.1 µM was 10% in assay [1] and 5% in assay [3].

On to `Cc1ccc[n+](CC#Cc2ccc(-c3ccc(C#CC[n+]4cccc(C)c4)cc3)cc2)c1` [Example 102, N,N′-[(1,1′-biphenyl)-4,4′-di-(1-propyn-3-yl)]-bis-(3-methylpyridinium)dibromide], for which the inhibition at 0.1 µM was determined as 9.4% in assay [1] and 12% in assay [3].

With `Cc1cc[n+](CC#Cc2ccc(-c3ccc(C#CC[n+]4ccc(C)cc4)cc3)cc2)cc1` [Example 103, N,N′-[(1,1′-biphenyl)-4,4′-di-(1-propyn-3-yl)]-bis-(4-methylpyridinium)dibromide], the inhibition at 0.1 µM worked out at 9.6% in assay [1] and 12% in assay [3].

For the compound `Cc1cc[n+](CC#Cc2ccc(-c3ccc(C#CC[n+]4ccc(C)c(C)c4)cc3)cc2)cc1C` [Example 104, N,N′-[(1,1′-biphenyl)-4,4′-di-(1-propyn-3-yl)]-bis-(3,4-dimethylpyridinium)dibromide], the inhibition at 0.1 µM in assay [1] is 19%; in assay [3], 16%.
